Three molecules from patent US9718811B2, “(S)-enantiomer of mepazine” (Helmholtz Zentrum München—Deutsches Forschungszentrum für …, priority 2013, dated 2017) can be followed below.

The target of one data set is T1, GST-MALT1325-760 (Homo sapiens, UniProt Q9UDY8).
T1 sequence (Q9UDY8 325-760 limits assumed): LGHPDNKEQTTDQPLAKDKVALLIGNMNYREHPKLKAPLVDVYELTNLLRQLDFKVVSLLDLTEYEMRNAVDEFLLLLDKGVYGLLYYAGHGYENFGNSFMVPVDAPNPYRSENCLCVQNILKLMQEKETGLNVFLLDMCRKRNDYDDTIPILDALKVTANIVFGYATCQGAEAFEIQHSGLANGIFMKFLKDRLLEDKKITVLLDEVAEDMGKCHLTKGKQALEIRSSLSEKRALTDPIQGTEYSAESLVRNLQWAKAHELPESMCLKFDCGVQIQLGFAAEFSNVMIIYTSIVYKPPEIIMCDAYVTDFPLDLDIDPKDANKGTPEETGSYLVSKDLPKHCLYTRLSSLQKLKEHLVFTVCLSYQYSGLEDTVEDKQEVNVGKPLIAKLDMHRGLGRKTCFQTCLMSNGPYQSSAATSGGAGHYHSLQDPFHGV
Put plainly: MALT1 paracaspase activity (fluorogenic cleavage) assay.

The next data set has as its target T2, human MALT1 (L339-R719) (Homo sapiens, UniProt Q9UDY8).
T2 construct: human MALT1 (L339-R719) was used; only implied by the Ni-NTA purification; made in house; host or cells: Escherichia coli Rosetta (DE3)
T2 sequence (Q9UDY8 339-719): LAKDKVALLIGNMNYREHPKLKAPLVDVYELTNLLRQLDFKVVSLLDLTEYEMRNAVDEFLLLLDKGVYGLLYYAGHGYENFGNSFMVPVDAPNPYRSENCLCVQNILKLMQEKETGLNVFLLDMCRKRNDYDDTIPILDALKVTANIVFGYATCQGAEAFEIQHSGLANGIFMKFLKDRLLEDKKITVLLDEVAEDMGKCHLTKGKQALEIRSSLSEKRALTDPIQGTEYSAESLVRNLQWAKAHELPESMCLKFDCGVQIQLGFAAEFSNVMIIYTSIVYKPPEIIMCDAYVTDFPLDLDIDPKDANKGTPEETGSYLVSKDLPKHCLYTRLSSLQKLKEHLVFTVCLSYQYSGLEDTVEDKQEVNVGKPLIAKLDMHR
Put plainly: Tryptophan fluorescence quenching assay. As to conditions: monomeric MALT1 (L339-R719), quenching of W580, 20° C.; FIG. 2a/b; read-out: binding affinity KD.

Data set [1] deals with GCB DLBCL cell-line Su-DHL-6. Put plainly: DLBCL xenograft model, Su-DHL-6 control tumor. In kind it is in vivo, mice (NSG). As to conditions: 6 or 12 mg/kg IP once daily, started 13 days after transplantation. The procedure: (§1) Tumors were engrafted in 6- to 8-week-old female NOD.Cg-Prkdc^scid I12rg^tm1Wj1/SzJ (NSG) mice by subcutaneous injection of 4×10^6 tumor cells (OCI-Ly10 or Su-DHL-6) resuspended in matrigel (BD). Both tumors were engrafted simultaneously on opposite flanks of individual mice, with four mice for each treatment group. […] A daily application of 150 or 300 μg of compound per animal (˜25 g) was used, corresponding to approximately 6 or 12 mg/kg, respectively. The tumor size was measured every other day after visual appearance using a caliper and calculated as square millimeters (length×width). Mice were sacrificed when the tumors were above 250 mm^2 and statistical data was analyzed with a two-way ANOVA test.
(§2) In the DLBCL xenograft model NSG mice were subcutaneously injected with the MALT1-dependent ABC DLBCL cell line OCI-Ly10 and the MALT1-independent GCB DLBCL cell-line Su-DHL6 in opposing flanks of individual mice.

Data set [2] relates to ABC DLBCL cell-line OCI-Ly10. Nature of the data set: DLBCL xenograft model, OCI-Ly10 tumor. In kind it is in vivo, mice (NSG). The settings on record: 6 or 12 mg/kg IP once daily, started 13 days after transplantation. The procedure:
as §1, §2

Data set [3] is described as follows: Racemization check by chiral HPLC. The format is physicochemical. The procedure: Enantiomeric purity of the thioridazine and mepazine enantiomers was determined by comparison to commercially available racemates using a ChiralPak IA 250×4.6 mm (L×I.D.) […] tris(3,5-dimethylphenylcarbamate) column. For thioridazine an isocratic gradient of 1% ethanol in hexane containing 0.1% diethylamine modifier was used. In the case of mepazine an isocratic gradient of 1% isopropanol in hexane containing 0.1% diethylamine modifier was used. Both were run at 1 ml/min.
(S)-Mepazine provided a single peak by Chiral HPLC under conditions in which the individual enantiomers are resolved.

Data set [4] is described as follows: Chronic progressive EAE (experimental allergic encephalomyelitis) model. The format is in vivo, C57Bl/6 mice. The procedure: For the EAE model first 1 mg/ml MOG35-55 peptides (MOG: myelin/oligodendrocyte glycoprotein; accession no. AAF74786) were emulsified 1:1 in Complete Freund's Adjuvant (CFA, incl. 5 mg/ml heat-killed M. tuberculum H37RA). On day one female C57Bl/6 mice (8-10 weeks old) were subcutaneously treated with 0.1 ml of MOG/CFA (0.1 mg MOG/0.25 mg CFA per mouse) in both flanks. In addition 0.2 ml pertussis toxin ([…]) was intraperitoneally injected immediately after (200 ng per mouse), followed by a second injection the day after. […] The clinical score of the mice was determined according to the following parameters: Score 0=no obvious signs of motor dysfunction in mice compared to non-immunized control; 0.5—distal tail limpness; 1=limp or floppy tail; 2=limp tail and weakness in hind legs; 3=limp tail and complete paralysis of hind legs OR limp tail with paralysis of one front and one hind leg; 4=limp tail, complete hind leg and partial front leg paralysis; 5=complete hind and complete front leg paralysis, no movement around cage OR mouse is spontaneously rolling in cage OR mouse found dead due to paralysis.
At the end of the study mice were euthanized and blood serum and also the brain and the spinal cord was collected for a histopathology analysis. Here foci of inflammatory cell infiltrate (at least 50 μm) into the spinal cord were counted and scored using the following criteria: 0=normal; 0.5 very minimal; 1=minimal, 2-4 generally less than 100 μm width/length; 2=mild, 5-7 small discreet foci; 3=moderate, 8-10 small plus larger coalescing areas; 4=marked, 11-13 small plus larger coalescing areas; 5=severe, often multiple coalescing >13. Percent area of white matter that bad demyelination, edema, dilated axons was estimated and used to determine a score using the following criteria: 0=normal; 1=minimal, 1-5% of total are affected; 2=mild, 5-25% of total area affected; 3=moderate, 26-50% of total area affected; 4=marked, 51-75% of total area affected; 5=>75% of total area affected.

Data set [5] can be described thus: CIA (collagen induced arthritis) model. In kind it is in vivo, DBA1/J mice. The settings on record: paw histopathology.
Where [6] appears, read: IC50 (MALT1 cleavage assay), wt GST-MALT1325-760, Ac-LRSR-AMC substrate, FIG. 2c/d.
Setting [7] is: IC50 on recombinant MALT1 (fluorogenic MALT1 cleavage assay), FIG. 3a/b.
[8] abbreviates: IP 8 mg/kg twice daily, histopathology, 8 mg/kg.

Entries after “also recorded” stand apart in the source; their conditions may differ.

Method for human MALT1 (L339-R719): For crystallization and tryptophan fluorescence quenching human MALT1 (L339-R719) was used.
Fluorescence quenching of tryptophan W580 was measured with the fluorescence spectrometer (FluoroMax-P, HORIBA Jobin Yvon) at an extinction wavelength of 285 nm and an emission wavelength of 329 nm. The measurement was performed by 2 μl titration steps of 400 μM, 800 μM, 4 mM, 8 mM thioridazine and mepazine stock solutions in H2O against 0.5 μM monomeric MALT1 (L339-R719) in 1.6 ml assay buffer (5 mM Hepes pH 7.0, 300 mM NaCl) at 20° C. The quenching assay of thioridazine and mepazine enantiomers was performed equally to racemates measurements.
For this assay advantage was taken from the fact that W580 is the only tryptophan residue in the MALT1Casp-Ig3 construct and is in close proximity to the bound tricyclic moiety of the phenothiazine derivatives.

For orientation: IC50 means the point on the concentration scale where inhibition reaches its midpoint. In general, Kd refers to the equilibrium constant for the complex coming apart. With `CSc1ccc2c(c1)N(CCC1CCCCN1C)c1ccccc1S2` (single isomer, unassigned) [(R)-thioridazine], the IC50 at GST-MALT1325-760 (setting [6]) worked out at 5 ± 1.5 µM; on GST-MALT1325-760 (setting [7]) it was 4.99 ± 1.52 µM. Also, the dissociation constant Kd at human MALT1 (L339-R719) came out at 23 ± 0.6 µM.
For the molecule `CN1CCC[C@H](CN2c3ccccc3Sc3ccccc32)C1` [(S)-mepazine, 10-{[(3S)-1-methylpiperidin-3-yl]methyl}-10H-phenothiazine], in data set [1], the “growth of the GCB DLBCL (Su-DHL-6) control tumor” value is on record as “not affected”. In addition, the “growth of the ABC DLBCL (OCI-Ly10) tumor” value in data set [2] was “selective growth reduction”. Moreover, the “racemization on standing or in solution” value in data set [3] is “No racemization”. Also, in data set [4] (IP 8 mg/kg twice daily), the “EAE induced weight loss” value is “reduced EAE induced weight loss”. Also, the “EAE severity (clinical score)” value in data set [4] (IP 8 mg/kg twice daily (16 mg/kg), started at clinical score of around 1) is “reduction of EAE severity”. In data set [4] (setting [8]), the “demyelination in the spinal cord” value is reported as “reduced; also recorded: inhibition” and the “inflammatory foci formation in the spinal cord” value is recorded as “reduced; also recorded: inhibition”. For the same molecule, in data set [5], the CIA-related inflammation result was “strong reduction; also recorded: decrease”, the bone resorption entry is recorded as “strong reduction; also recorded: decrease”, the cartilage damage entry was “strong reduction; also recorded: decrease” and the pannus formation entry was “strong reduction; also recorded: decrease”.
As for `CSc1ccc2c(c1)N(CCC1CCCCN1C)c1ccccc1S2` (single isomer, unassigned) [(S)-thioridazine], the IC50 against GST-MALT1325-760 (setting [6]) stood at 4.8 ± 0.9 µM; at GST-MALT1325-760 (setting [7]) it was 4.83 ± 0.88 µM. Also, the dissociation constant (Kd) on human MALT1 (L339-R719) came to 21.3 ± 0.5 µM.
